Assay results: US20090105200A1, “Combination therapy” (priority 2007, published 2009)

Key:
NF-κB2 precursor p100 = assay: Immunoblot analysis of p100/p52; format: cell-based, human; settings: bortezomib with romidepsin
Protocol: (§1) Methods. […] Immunoblot analysis (30 μg of protein per condition) was performed to detect cleavage of caspase-12 and PARP, levels of IκB c, phospho-IκBα, p65, p100/p52, as well as expression of NF-κB downstream anti-apoptotic proteins. Parallel studies were performed in two established CLL cell lines (JVM-3 and MEC-2, DSMZ).

Mcl-1 = assay: Immunoblot analysis of Mcl-1; format: cell-based, human
Protocol: as §1

primary CLL cells = assay: Cell death by 7AAD staining/flow cytometry and Wright-Giemsa stained cytospin slides; format: cell-based, human; settings: 24 hours; for toxicity to CLL cells (photomicrographs): individual treatment, 3 nM
[1] = test system: bortezomib-resistant cells (U266/PS-R); assay: Apoptosis by Annexin V-FITC staining and flow cytometry; format: cell-based, human; settings: 48 hours; 2 nM romidepsin with 5-15 nM bortezomib
[2] = test system: dexamethasone-resistant (MM.1R) human myeloma cells; assay: Apoptosis by Annexin V staining and flow cytometry; format: cell-based; settings: 24 hours; 1 nM romidepsin with 2 nM bortezomib
[3] = Phase I/II dose escalation trial: toxicity and maximum tolerated dose; format: in vivo, human; settings: dose level 2; with bortezomib 1.3 mg/m^2 and dexamethasone 20 mg; 28-day cycle
Text: The trial design is illustrated in FIG. 10.
Specifically, during phase I (accelerated dose escalation phase), an accelerated titration design was used to ascertain the MTD of romidepsin. For example, if no dose limiting toxicities (DLTs) and <2 patients have moderate toxicities in cycle 1 (C1), the next patient is entered at one level higher. According to National Cancer Institute Common Toxicity Criteria (NCI-CTC) (version 3), DLT is defined as platelets<25×10^9/L; Grade 4 neutropenia despite G-CSF support; Grade 3 or 4 nausea, emesis, or diarrhea despite treatment; any other Grade 3 or 4 non-haematological toxicity; or >4 week suspension of treatment due to toxicity. The accelerated phase ends when one patient has a DLT during C1 or two patients have “moderate” toxicity during first treatment cycles. Patients were entered in cohorts of three according to the standard dose escalation design. A maximum of six patients were treated at any dose level. MTD is defined as the highest dose level at which the incidence of DLT is less than 33%. […]

NF-κB = format: cell-based, human; settings: romidepsin alone
Protocol: as §1

[4] = bortezomib 3 nM with romidepsin 3-5 nM, five patients

SMILES	processing of NF-κB2 precursor p100 into p52 (NF-κB2 precursor p100)	Mcl-1 level (Mcl-1; bortezomib alone)	toxicity to CLL cells (photomicrographs) (primary CLL cells)	effect on bortezomib lethality [1]	bortezomib-induced Mcl-1 accumulation (Mcl-1; cells co-exposed to romidepsin)	effect on bortezomib lethality [2]	maximum tolerated dose of romidepsin [3]	primary CLL samples with additive lethality (primary CLL cells; [4])	primary CLL samples with increased bortezomib lethality (primary CLL cells; [4])	NF-κB activity (NF-κB)
CC(C)C[C@H](NC(=O)[C@H](Cc1ccccc1)NC(=O)c1cnccn1)B(O)O [bortezomib, [(1R)-3-methyl-1-[[(2S)-1-oxo-3-phenyl-2-[(pyrazinylcarbonyl)amino]propyl]amino]butyl]boronic acid]	blocked romidepsin-mediated processing of NF-κB2 precursor p100 into its active p52 form	induced accumulation of Mcl-1	relatively non-toxic							
C/C=C1\NC(=O)[C@H]2CSSCC/C=C/[C@H](CC(=O)N[C@H](C(C)C)C(=O)N2)OC(=O)[C@H](C(C)C)NC1=O [romidepsin, (1S,4S,10S,16E,21R)-7-[(2Z)-ethylidene]-4,21-diisopropyl-2-oxa-12,13-dithia-5,8,20,23-tetraazabicyclo[8.7.6]tricos-16-ene-3,6,9,19,22-pentanone]			relatively non-toxic	potentiates bortezomib lethality	diminished	potentiate bortezomib lethality	10 mg/m^2	additive lethality in one sample	dramatically increased bortezomib lethality in four out of five primary CLL samples	activated NF-κB activity
